Results on one compound are retold here after patent US20240139162A1, “Benzophenanthridine Alkaloids and Their Methods of Use” (Chengdu Anticancer Bioscience, LTD., priority 2019, published 2024).

Entries after “also recorded” stand apart in the source; their conditions may differ. Read-outs that look alike come from different tables or passages of the source.

The test system of assay [1] is RPE cell lines (RPE NEO, RPE MBH, RPE MBC, RPE MA, RPE MP, RPE MI, RPE MYC Nick). Kind of assay: MTT assay, RPE cell lines expressing oncogenes. The format is cell-based, human. The note with it: RPE cell lines compared with RPE NEO control (FIG. 11).
Another assay deals with RPE-A19 cells. Kind of assay: IC50 in RPE-A19 cells (Table 2). The format is cell-based, human. The note with it: Homo sapiens, 72 h, RPE-A19, treatment 72 h; read-out: IC50. The procedure:
(§1) Cells were split, plated in appropriate culture media and allowed to adhere. After 18 hours, corynoline and acetylcorynoline were added to a cell line selected from below. At 72 h or 96 h, MTT was added and at 75 h or 99 h, the A570 nm was recorded. The concentration ranged from 0.02 μM to 40 μM.
(§2) The effect of the compounds chelidonine and protopine on cell division was assessed similarly to corynoline and acetylcorynoline above. As described in Example 6 above, as cells enter and become arrested in mitosis, they detach from the plate surface and appear as rounded cells with a smooth surface membrane. RPE-MBC cells (ectopically expressing oncogenes MYC and Bcl2) were treated with DMSO, chelidonine and protopine, and compared against controls Michael's ketone (MK) and taxol.

In assay [2] the test system is all tested cell lines (RPE, Rat1A and human cancer cell lines). Kind of assay: MTT assay, IC50 across all of the cell lines tested. Format: cell-based.
A further assay concerns RPE-Neo cells. Kind of assay: IC50 in RPE-Neo cells (Table 2). The format is cell-based, human. To be noted: Homo sapiens, 72 h, RPE-Neo, treatment 72 h; read-out: IC50. As to the method:
as §1
(§3) The following RPE cell lines were used in these studies: RPE NEO, RPE MBH, RPE MBC, RPE MA, RPE MP, RPE MI, and RPE MYC Nick. This RPE series were derived from human retinal pigment epithelium and then stably transfected with an hTERT expression construct for immortalization. The resulting cell line was then engineered to overexpress the MYC oncogene (RPE-MYC) or a Neomycin selection marker gene (RPE-NEO). In RPE-MYC cells, a variety of other oncogenes such as Myr-AKT, BCL2, ID1 and PI3K^E45k were further introduced individually to generate the cell lines RPE MA, RPE MBC, RPE MI, RPE MP, respectively. As a control, H2BGFP was introduced into RPE-MYC cells to generate RPE MBH.
as §2

The subject of the next assay is RPE-MBC cells. Kind of assay: IC50 in RPE-MBC cells (Table 1). The format is cell-based, human. The note with it: Homo sapiens; RPE-MBC, treatment 72 h; read-out: IC50. As to the method:
Retinal pigment epithelial cells transformed by ectopic MYC and Bcl-2 expression (RPE-MBC cells) have been described previously (e.g., Goga et al., 2007, Nat. Med., 13 (7):820-827) and were cultured in DMEM supplemented with 5% fetal bovine serum in a humidified incubator that was maintained at 5% CO2. For screening for bioactive fractions, cells were cultured in 96-well plates, and exposed to crude extracts, partially purified fractions or pure compounds at the concentrations indicated in the figure legends. Exposure was for 24 or 48 hours before analysis of cells for either an arrest in mitosis using an inverted microscope or for a change in DNA content after 4′,6′-diamidino-2-phenylindole (DAPI) staining by fluorescence microscopy.
The RPE series were derived from human retinal pigment epithelium and then stably transfected with a hTERT expression construct for immortalization. The resulting cell line was then engineered to overexpress the MYC and BCL2 oncogenes, generating the RPE MBC cell line. This cell line mimics cancer cells that overexpress MYC and Bcl2, and readily forms viable polyploid cells when cytokinesis is prevented.
as §1, §2

Assay [3] deals with RPE MBC cells. Kind of assay: Spindle pole assembly by β-tubulin / Histone H3ser10P immunofluorescence. The format is cell-based, human. As to the method: Microtubule assembly, specifically spindle pole assembly, was altered by treatment with acetylcorynoline. RPE MBC cells were treated with acetylcorynoline and Histone H3 Serine 10 Phosphorylation (Histone H3ser10p, shown in FIG. 4 and FIG. 5 in red), β-tubulin (green) and DNA (blue) was analyzed by immunofluorescence microscopy. Histone H3ser10P was used to determine the cells that were in early mitosis (e.g., prometaphase or metaphase). β-tubulin was used to examine microtubule localization and spindle assembly within the cells.
Similarly to corynoline and acetylcorynoline above, it was determined that microtubule assembly, specifically spindle pole assembly, was altered by treatment with chelidonine.

The test system of the next assay is human cancer cell lines. Kind of assay: MTT assay, human cancer cell lines. Format: cell-based. To be noted: with the exception of T98G (FIG. 13). As to the method:
Cells were split, plated in appropriate culture media and allowed to adhere. After 18 hours, corynoline and acetylcorynoline were added to a cell line selected from below. At 72 h or 96 h, MTT was added and at 75 h or 99 h, the A570 nm was recorded. The concentration ranged from 0.02 μM to 40 μM. Taxol was used as a positive control, which has a known IC50 value of less than 0.02 μM in all tested cell lines.
The following human cancer cell lines, representing a breadth of cancer subtypes, were used in these studies: Hela, C32, NCI-H23, HCT116 p53-/-, HCT116 wild type, MDA-MB-175IV, MDA-MB-231, MDA-MB-435, MCF-7, A431, H460, TUWI, CaoV-3, T98G, and HTB135.

Another assay deals with IMR 90 cells. Kind of assay: IC50 in IMR 90 cells (Table 2). The note with it: Homo sapiens, IMR-90, 72 h, IMR 90, treatment 72 h; read-out: IC50. The format is cell-based. The procedure:
as §1, §2

Assay [4] relates to RPE MBC cells. Kind of assay: Mitotic kinetochore analysis with CREST antibody. Format: cell-based, human. The procedure:
Following treatment with acetylcorynoline, RPE MBC cells were prepared for immunofluorescence analysis with CREST serum (staining shown in FIG. 6 and FIG. 7 in red).

The test system of a further assay is RPE-MBH cells. Kind of assay: IC50 in RPE-MBH cells (Table 1). The format is cell-based, human. To be noted: Homo sapiens, 72 h, RPE-MBH, treatment 72 h; read-out: IC50. As to the method: as §1, §3, §2
In a further assay the test system is Rat1A cells. Kind of assay: IC50 in Rat1A cells (Table 2). The format is cell-based. The note with it: 72 h, Rat1A, treatment 72 h; read-out: IC50. As to the method: as §1
The following Rat1A cell lines were used in these studies: Rat1 A C, Rat1A MYC, Rat1A E2F1, and Rat1A E2F3. The cell line was then engineered as control (C), to overexpress the MYC oncogene (Rat1A-MYC), to overexpress the E2F1 oncogene (Rat1A-E2F1), or to overexpress the E2F3 oncogene (Rat1A-E2F3).
as §2

The test system of a further assay is cells. Kind of assay: Progression through mitosis by time-lapse microscopy. The format is cell-based. The source says: Time lapse microscopy was used to compare progression through mitosis for cells treated with acetylcorynoline and the DMSO control group, beginning at prophase.

`CC(=O)O[C@H]1Cc2cc3c(cc2[C@H]2N(C)Cc4c(ccc5c4OCO5)[C@@]12C)OCO3` [Acetylcorynoline, (5bR,6S,12bR)-5b,6,7,12b,13,14-Hexahydro-5b,13-dimethyl-[1,3]benzodioxolo[5,6-c]-1,3-dioxolo[4,5-i]phenanthridin-6-ol 6-acetate]: the “change of IC50 after overexpression of oncogenic factors” value in assay [1] was “all declined compared with the RPE NEO control, with the exception of the RPE MA cell line”. The IC50 with RPE-A19 cells is 35.2 µM; in assay [2] (Homo sapiens, across all of the cell lines tested (FIG. 9), MTT at 72 h or 96 h, read-out: IC50) it was 1 to 31 µM; in assay [2] (oncogene-expressing RPE cell lines and human cell lines (FIG. 2, FIG. 3), read-out: IC50, majority of values), 1 to 31 µM; with RPE-Neo cells, more than 40 µM; in the assay on RPE-MBC cells, 9.94 µM; in the assay with IMR 90 cells, more than 40 µM. The 50% inhibitory concentration (IC50) in the assay with RPE-MBH cells came to 12.6 µM; in the assay with Rat1A cells it was 27.4 µM. In addition, the “cells in prometaphase (Histone H3ser10P staining)” value with RPE MBC cells [3] (6 hours of treatment) is “Numerous mitotic cells accumulated in prometaphase; also recorded: high numbers of cells arresting in prometaphase”. The “spindle formation (β-tubulin staining)” value with RPE MBC cells [3] (6 hours of treatment) is listed as “monopolar spindles were formed; also recorded: abnormal spindle polarization in mitosis”; with RPE MBC cells [3] (24 hours of treatment), “multipolar spindles were formed; also recorded: multipolar spindle formation in mitosis”. Besides, the “IC50 compared with the other compound” value with human cancer cell lines is “higher than those for corynoline”. For the same compound, the “kinetochore arrangement (CREST staining)” value with RPE MBC cells [4] was “kinetochore arrangement was disturbed”. In addition, the cytofission result in the assay on cells (time lapse) is given as “prevented cytofission”. Also, the initiation of cytokinesis entry in the assay on cells (time lapse) is listed as “does not affect the initiation of cytokinesis”. In the assay with cells (time lapse beginning at prophase), the “time spent in early mitosis compared to a control cell” value is “three-times longer”.
